Results taken from patent publication US9295739B2, “Folate conjugates of albumin-binding entities” (MERCK & CIE, priority 2011, dated 2016).

What was measured:
[1] = log D7.4 by the shake flask method; type: physicochemical
KB tumor xenografts = experiment: Ex vivo biodistribution of [18F]FDG-AB-folate in nude mice bearing KB tumor xenografts; conditions: 2 h p.i., n = 3
Experimental: In vivo experiments were performed in female nude mice bearing KB tumor xenografts.
Animals were injected with ˜3 MBq of [^18F]FDG-AB-folate 34 via a lateral tail vein. Animals were sacrificed 2 h after radiotracer injection. Organs- and tissues were dissected and measured in the γ-counter (Wizard, PerkinElmer). The incorporated radioactivity was expressed as percentage injected dose (% ID) per gram of tissue.

## Nc1nc2ncc(CNc3ccc(C(=O)N[C@@H](CCC(=O)NC(Cc4cn([C@@H]5OC(CO)[C@@H](O)[C@H](O)C5[18F])nn4)C(=O)N[C@@H](CCCCNC(=O)CCCc4ccc(I)cc4)C(=O)O)C(=O)O)cc3)nc2c(=O)[nH]1 (stereo partly shown) [[^18F]FDG-AB-folate]
[1]
  log D7.4 value: −3.2±0.4
KB tumor xenografts
  Blood: 2.93 ± 0.55 % ID/g
  Bone: 1.50 ± 0.24 % ID/g
  Brain: 0.89 ± 0.17 % ID/g
  Feces: 53.02 ± 26.52 % ID/g
  Gallbladder: 83.78 ± 16.78 % ID/g
  Heart: 3.20 ± 0.53 % ID/g
  Intestine: 8.84 ± 7.07 % ID/g
  Kidneys: 14.98 ± 1.47 % ID/g
  Liver: 7.14 ± 0.78 % ID/g
  Lungs: 2.44 ± 0.58 % ID/g
  Muscle: 1.62 ± 0.26 % ID/g
  Ratio Tumor/Blood: 3.33 ± 0.59
  Ratio Tumor/Kidneys: 0.64 ± 0.07
  Ratio Tumor/Liver: 1.34 ± 0.16
  Salivary glands: 7.55 ± 0.08 % ID/g
  Spleen: 0.81 ± 0.03 % ID/g
  Stomach: 1.93 ± 0.51 % ID/g
  Tumor: 9.51 ± 0.08 % ID/g
